In patent publication US11008317B2, “Triazolopyridine inhibitors of myeloperoxidase and/or EPX” (priority 2016, dated 2021):

Tests used:
myeloperoxidase [1] = target: T1, myeloperoxidase (Homo sapiens, UniProt P05164); test: MPO Peroxidation Assay (Amplex Red Assay); assay type: biochemical; details: potency range class
T1 sequence (P05164 49-745): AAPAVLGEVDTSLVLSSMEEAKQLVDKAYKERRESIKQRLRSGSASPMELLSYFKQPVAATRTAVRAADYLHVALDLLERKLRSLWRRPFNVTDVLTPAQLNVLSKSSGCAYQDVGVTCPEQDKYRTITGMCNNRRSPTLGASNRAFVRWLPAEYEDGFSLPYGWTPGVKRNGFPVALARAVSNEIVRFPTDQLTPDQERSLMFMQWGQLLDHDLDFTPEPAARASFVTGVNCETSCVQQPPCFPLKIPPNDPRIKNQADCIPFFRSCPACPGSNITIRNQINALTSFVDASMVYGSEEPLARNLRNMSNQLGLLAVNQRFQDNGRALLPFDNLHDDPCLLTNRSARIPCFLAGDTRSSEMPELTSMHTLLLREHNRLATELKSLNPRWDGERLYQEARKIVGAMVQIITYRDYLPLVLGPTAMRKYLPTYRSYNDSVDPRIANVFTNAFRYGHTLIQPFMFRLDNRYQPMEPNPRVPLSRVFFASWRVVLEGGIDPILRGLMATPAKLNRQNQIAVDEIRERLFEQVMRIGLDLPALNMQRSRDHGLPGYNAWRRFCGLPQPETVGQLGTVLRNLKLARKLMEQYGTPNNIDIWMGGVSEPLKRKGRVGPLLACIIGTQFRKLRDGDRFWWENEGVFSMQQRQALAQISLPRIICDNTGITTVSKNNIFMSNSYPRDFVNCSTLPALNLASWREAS

myeloperoxidase [2] = target: T1, myeloperoxidase; test: MPO Chlorination Assay (APF Assay); assay type: biochemical; details: potency range class
[3] = read-out: Amplex Red Assay IC50 value

Row | SMILES | IC50 (myeloperoxidase [1]; [3]) | IC50 (myeloperoxidase [2]; read-out: APF Assay IC50 value) | IC50 (myeloperoxidase [1]; Amplex Red Assay IC50 value (μM)) | IC50 (myeloperoxidase [2]; APF Assay IC50 value (μM))
1 | Nc1cc(C(CCNC2CCC(c3cccc(Cl)c3)CC2)c2ccccc2)c2nn[nH]c2n1 (centres unmarked) [Example 105, 7-(3-{[4-(3-chlorophenyl)cyclohexyl]amino}-1-phenylpropyl)-3H-[1,2,3]triazolo[4,5-b]pyridin-5-amine] | 1 to 10 µM | 0.001 to 0.1 µM |  | 
2 | Nc1cc(C(CCNCCCc2ccccc2)c2ccccc2)c2nn[nH]c2n1 (centres unmarked) [Example 106, 7-{1-phenyl-3-[(3-phenylpropyl)amino]propyl}-3H-[1,2,3] triazolo[4,5-b] pyridin-5-amine] | 0.101 to 0.999 µM | 0.101 to 0.999 µM |  | 
3 | Nc1cc(C(CCN[C@H]2CC[C@@H](c3ccc(Cl)cc3)CC2)c2ccccc2)c2nn[nH]c2n1 (some centres unmarked) [Example 107, 7-(1-phenyl-3-{[(1s,4s)-4-(4-chlorophenyl)cyclohexyl]amino}propyl)-3H-[1,2,3] triazolo[4,5-b] pyridin-5-amine] | 0.101 to 0.999 µM | 0.001 to 0.1 µM |  | 
4 | Nc1cc(C(CCN[C@H]2CC[C@H](c3ccc(Cl)cc3)CC2)c2ccccc2)c2nn[nH]c2n1 (stereo partly drawn) [Example 108, 7-(1-phenyl-3-{[(trans)-4-(4-chlorophenyl)cyclohexyl]amino}propyl)-3H-[1,2,3] triazolo[4,5-b] pyridin-5-amine] | 0.101 to 0.999 µM | 0.001 to 0.1 µM |  | 
5 | Nc1cc(C(CCNCCc2ccccc2)c2ccccc2)c2nn[nH]c2n1 (centres unmarked) [Example 109, 7-{1-phenyl-3-[(2-phenylethyl)amino]propyl}-3H-[1,2,3] triazolo[4,5-b] pyridin-5-amine] | 0.101 to 0.999 µM | 0.101 to 0.999 µM |  | 
6 | CC1(NCCC(c2ccccc2)c2cc(N)nc3[nH]nnc23)CCc2ccccc21 (centres unmarked) [Example 110, 7-{3-[(1-methyl-2,3-dihydro-1H-inden-1-yl)amino]-1-phenylpropyl}-3H-[1,2,3]triazolo[4,5-b]pyridin-5-amine] | 0.101 to 0.999 µM | 0.101 to 0.999 µM |  | 
7 | Nc1cc(C(CCNC2CCC(c3ccc(F)cc3)CC2)c2ccccc2)c2nn[nH]c2n1 (centres unmarked) [Example 112, 7-(3-{[4-(4-fluorophenyl)cyclohexyl]amino}-1-phenylpropyl)-3H-[1,2,3]triazolo [4,5-b]pyridin-5-amine] | 0.101 to 0.999 µM | 0.101 to 0.999 µM |  | 
8 | Nc1cc(C(CCNC2(CO)CCC(c3ccccc3)CC2)c2ccccc2)c2nn[nH]c2n1 (centres unmarked) [Example 116, {1-[(3-{5-amino-3H-[1,2,3]triazolo[4,5-b]pyridin-7-yl}-3-phenylpropyl)amino]-4-phenylcyclohexyl} methanol] | 0.101 to 0.999 µM | 0.001 to 0.1 µM |  | 
9 | NC(=O)c1ccc(C2CCC(NCCC(c3ccccc3)c3cc(N)nc4[nH]nnc34)CC2)cc1 (centres unmarked) [Example 117, 4-{4-[(3-{5-amino-3H-[1,2,3]triazolo [4,5-b]pyridin-7-yl}-3-phenylpropyl)amino]cyclohexyl} benzamide] | 0.101 to 0.999 µM | 0.001 to 0.1 µM |  | 
10 | NC(=O)c1ccc(C2CCC(NCCC(c3ccccc3)c3cc(N)nc4[nH]nnc34)CC2)cc1 (centres unmarked) [Example 118, 4-{4-[(3-{5-amino-3H-[1,2,3]triazolo [4,5-b]pyridin-7-yl}-3-phenylpropyl)amino]cyclohexyl} benzamide] | 0.101 to 0.999 µM | 0.101 to 0.999 µM |  | 
11 | CC(C)(Cc1ccccc1)NCCC(c1ccccc1)c1cc(N)nc2[nH]nnc12 (centres unmarked) [Example 119, 7-{3-[(2-methyl-1-phenylpropan-2-yl)amino]-1-phenylpropyl}-3H-[1,2,3]triazolo [4,5-b]pyridin-5-amine] | 0.101 to 0.999 µM | 0.001 to 0.1 µM |  | 
12 | Nc1cc(C(CCNCC(c2ccccc2)c2ccccc2)c2ccccc2)c2nn[nH]c2n1 (centres unmarked) [Example 120, 7-{3-[(2,2-diphenylethyl)amino]-1-phenylpropyl}-3H-[1,2,3]triazolo[4,5-b]pyridin-5-amine] | 1 to 10 µM | 0.001 to 0.1 µM |  | 
13 | COc1ccc2c(c1)CC[C@H]2NCCC(c1ccccc1)c1cc(N)nc2[nH]nnc12 (stereo partly drawn) [Example 121, 7-(3-{[(1R)-5-methoxy-2,3-dihydro-1H-inden-1-yl]amino}-1-phenylpropyl)-3H-[1,2,3]triazolo[4,5-b]pyridin-5-amine] | 0.101 to 0.999 µM | 0.101 to 0.999 µM |  | 
14 | Nc1cc(C(CCN[C@@H]2CCc3c(Cl)cc(Cl)cc32)c2ccccc2)c2nn[nH]c2n1 (stereo partly drawn) [Example 123, 7-(3-{[(1R)-4,6-dichloro-2,3-dihydro-1H-inden-1-yl]amino}-1-phenylpropyl)-3H-[1,2,3]triazolo[4,5-b]pyridin-5-amine] | 0.101 to 0.999 µM | 0.101 to 0.999 µM |  | 
15 | Nc1cc(C(CCNC2(c3ccccc3)CCCCC2)c2ccccc2)c2nn[nH]c2n1 (centres unmarked) [Example 128, 7-{1-phenyl-3-[(1-phenylcyclohexyl)amino]propyl}-3H-[1,2,3]triazolo [4,5-b]pyridin-5-amine] |  |  | 1 to 10 µM | 0.001 to 0.1 µM

Further lines, with some results ahead:

Row | IC50 (myeloperoxidase [1]; [3]) | IC50 (myeloperoxidase [2]; read-out: APF Assay IC50 value) | SMILES | IC50 (myeloperoxidase [1]; Amplex Red Assay IC50 value (μM)) | IC50 (myeloperoxidase [2]; APF Assay IC50 value (μM))
16 | 1 to 10 µM | 0.101 to 0.999 µM | Nc1cc(C(CCN[C@@H]2CCc3ccc(C(F)(F)F)cc32)c2ccccc2)c2nn[nH]c2n1 (stereo partly drawn) [Example 124, 7-(1-phenyl-3-{[(1R)-6-(trifluoromethyl)-2,3-dihydro-1H-inden-1-yl]amino}propyl)-3H-[1,2,3] triazolo[4,5-b] pyridin-5-amine] |  | 
17 | 0.101 to 0.999 µM | 0.001 to 0.1 µM | Nc1cc(C(CCNC2CCC(c3ccc(F)cc3)CC2)c2ccccc2)c2nn[nH]c2n1 (centres unmarked) [Example 125, 7-(3-{[4-(4-fluorophenyl)cyclohexyl]amino}-1-phenylpropyl)-3H-[1,2,3]triazolo[4,5-b]pyridin-5-amine] |  | 
18 | 1 to 10 µM | 0.001 to 0.1 µM | Nc1cc(C(CCNC2CCC(Cc3ccccc3)(c3ccccc3)CC2)c2ccccc2)c2nn[nH]c2n1 (centres unmarked) [Example 126, 7-{3-[(4-benzyl-4-phenylcyclohexyl)amino]-1-phenylpropyl}-3H-[1,2,3]triazolo[4,5-b]pyridin-5-amine] |  | 
19 | 1 to 10 µM | 0.001 to 0.1 µM | Nc1cc(C(CCNC2CCC(c3ccccc3)(c3ccccc3)CC2)c2ccccc2)c2nn[nH]c2n1 (centres unmarked) [Example 127, 7-{3-[(4,4-diphenylcyclohexyl)amino]-1-phenylpropyl}-3H-[1,2,3]triazolo[4,5-b]pyridin-5-amine] |  | 
20 | 1 to 10 µM | 0.001 to 0.1 µM | Nc1cc(C(CCNC2CCC(Cc3ccccc3)CC2)c2ccccc2)c2nn[nH]c2n1 (centres unmarked) [Example 129, 7-{3-[(4-benzylcyclohexyl)amino]-1-phenylpropyl}-3H-[1,2,3]triazolo[4,5-b]pyridin-5-amine] |  | 
21 | 0.101 to 0.999 µM | 0.001 to 0.1 µM | CCCCC12CCC(NCCC(c3ccccc3)c3cc(N)nc4[nH]nnc34)(CC1)CC2 (centres unmarked) [Example 130, 7-[3-({4-butylbicyclo [2.2.2]octan-1-yl}amino)-1-phenylpropyl]-3H-[1,2,3]triazolo[4,5-b]pyridin-5-amine] |  | 
22 | 1 to 10 µM | 1 to 10 µM | Nc1cc(C(CCNC2CCC(c3cccnc3)CC2)c2ccccc2)c2nn[nH]c2n1 (centres unmarked) [Example 132, 7-(1-phenyl-3-{[4-(pyridin-3-yl)cyclohexyl]amino]propyl)-3H-[1,2,3] triazolo[4,5-b] pyridin-5-amine] |  | 
23 | 0.101 to 0.999 µM | 0.101 to 0.999 µM | Nc1cc(C(CCN[C@H]2CC[C@@H](c3ccc(=O)[nH]c3)CC2)c2ccccc2)c2nn[nH]c2n1 (stereo partly drawn) [Example 133, 5-[(cis)-4-[(3-{5-amino-3H-[1,2,3]triazolo[4,5-b]pyridin-7-yl}-3-phenylpropyl)amino]cyclohexyl]-1,2-dihydropyridin-2-one] |  | 
24 | 0.101 to 0.999 µM | 0.101 to 0.999 µM | Nc1cc(C(CCN[C@H]2CC[C@H](c3ccc(=O)[nH]c3)CC2)c2ccccc2)c2nn[nH]c2n1 (stereo partly drawn) [Example 134, 5-[(trans)-4-[(3-{5-amino-3H-[1,2,3]triazolo[4,5-b]pyridin-7-yl}-3-phenylpropyl)amino]cyclohexyl]-1,2-dihydropyridin-2-one] |  | 
25 | 1 to 10 µM | 0.101 to 0.999 µM | COc1ccncc1[C@H]1CC[C@H](NCCC(c2ccccc2)c2cc(N)nc3[nH]nnc23)CC1 (stereo partly drawn) [Example 137, 7-(1-phenyl-3-{[(trans)-4-(4-methoxypyridin-3-yl)cyclohexyl]amino}propyl)-3H-[1,2,3]triazolo [4,5-b]pyridin-5-amine] |  | 
26 | 1 to 10 µM | 1 to 10 µM | COc1ccncc1[C@H]1CC[C@@H](NCCC(c2ccccc2)c2cc(N)nc3[nH]nnc23)CC1 (some centres unmarked) [Example 138, 7-(1-phenyl-3-{[(1s,4s)-4-(4-methoxypyridin-3-yl)cyclohexyl]amino}propyl)-3H-[1,2,3]triazolo [4,5-b]pyridin-5-amine] |  | 
27 | 0.101 to 0.999 µM | 0.001 to 0.1 µM | Nc1cc(C(CCN[C@H]2CC[C@H](c3ccncc3)CC2)c2ccccc2)c2nn[nH]c2n1 (stereo partly drawn) [Example 139, 7-(1-phenyl-3-{[(trans)-4-(pyridin-4-yl)cyclohexyl]amino}propyl)-3H-[1,2,3] triazolo[4,5-b] pyridin-5-amine] |  | 
28 | 0.101 to 0.999 µM | 0.101 to 0.999 µM | Nc1cc(C(CCN[C@H]2CC[C@@H](c3ccncc3)CC2)c2ccccc2)c2nn[nH]c2n1 (some centres unmarked) [Example 141, 7-(1-phenyl-3-{[(1s,4s)-4-(pyridin-4-yl)cyclohexyl]amino}propyl)-3H-[1,2,3]triazolo [4,5-b]pyridin-5-amine] |  | 
